The Ki is a measure of affinity in units of concentration, obtained from inhibition or displacement. Higher therefore signals lower affinity. The term IC50 denotes the concentration at which inhibition is half-maximal. Read a high IC50 as lower potency. What is called inhibition is the change of the read-out against control, counted positive when it falls.

We go through 2 compounds from ChEMBL document CHEMBL4699569, “Rapid discovery of a selective butyrylcholinesterase inhibitor using structure-based virtual screening” (Bioorg Med Chem Lett, 2020).

The target of data set [1] is T1, Cholinesterase (Equus caballus, UniProt P81908). Put plainly: Mixed inhibition of equine serum BChE using butyrylthiocholine iodide as substrate. It counts as cell-free.
A further data set addresses Acetylcholinesterase (Electrophorus electricus, UniProt O42275). Put plainly: Inhibition of electric eel AChE at 100 uM.
Data set [2] has as its target T1, Cholinesterase. Put plainly: Inhibition of equine serum BuChE. It counts as cell-free.
A short description of data set [3]: Permeability of compound by PAMPA-BBB assay. The format is ADME. The settings on record: read-out: permeability. (In general: In PAMPA a lipid-coated filter parts donor from acceptor wells.)
Data set [4] deals with Cholinesterase (Homo sapiens, UniProt P06276). In words: Inhibition of human BuChE at 10 uM.
Data set [5] deals with Acetylcholinesterase (Homo sapiens) (UniProt P22303). Put plainly: Inhibition of human recombinant AChE at 200 uM.
Chain of Acetylcholinesterase (Homo sapiens) (P22303 whole entry): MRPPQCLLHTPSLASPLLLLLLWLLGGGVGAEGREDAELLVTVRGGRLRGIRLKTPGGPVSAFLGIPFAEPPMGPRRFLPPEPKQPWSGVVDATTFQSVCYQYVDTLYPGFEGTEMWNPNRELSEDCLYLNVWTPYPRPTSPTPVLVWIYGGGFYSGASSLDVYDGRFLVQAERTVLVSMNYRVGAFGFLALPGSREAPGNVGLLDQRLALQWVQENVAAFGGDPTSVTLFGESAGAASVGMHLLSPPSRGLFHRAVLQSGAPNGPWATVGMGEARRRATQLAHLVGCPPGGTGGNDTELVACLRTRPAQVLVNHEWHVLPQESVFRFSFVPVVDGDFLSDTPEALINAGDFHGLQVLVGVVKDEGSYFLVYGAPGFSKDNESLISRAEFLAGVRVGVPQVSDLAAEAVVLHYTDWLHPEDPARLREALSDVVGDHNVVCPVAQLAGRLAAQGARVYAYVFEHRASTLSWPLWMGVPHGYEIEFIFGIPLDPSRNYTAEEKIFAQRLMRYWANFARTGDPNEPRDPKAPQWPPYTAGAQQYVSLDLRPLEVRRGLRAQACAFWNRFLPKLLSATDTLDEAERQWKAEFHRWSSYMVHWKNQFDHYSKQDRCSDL

T1 sequence (P81908 whole entry): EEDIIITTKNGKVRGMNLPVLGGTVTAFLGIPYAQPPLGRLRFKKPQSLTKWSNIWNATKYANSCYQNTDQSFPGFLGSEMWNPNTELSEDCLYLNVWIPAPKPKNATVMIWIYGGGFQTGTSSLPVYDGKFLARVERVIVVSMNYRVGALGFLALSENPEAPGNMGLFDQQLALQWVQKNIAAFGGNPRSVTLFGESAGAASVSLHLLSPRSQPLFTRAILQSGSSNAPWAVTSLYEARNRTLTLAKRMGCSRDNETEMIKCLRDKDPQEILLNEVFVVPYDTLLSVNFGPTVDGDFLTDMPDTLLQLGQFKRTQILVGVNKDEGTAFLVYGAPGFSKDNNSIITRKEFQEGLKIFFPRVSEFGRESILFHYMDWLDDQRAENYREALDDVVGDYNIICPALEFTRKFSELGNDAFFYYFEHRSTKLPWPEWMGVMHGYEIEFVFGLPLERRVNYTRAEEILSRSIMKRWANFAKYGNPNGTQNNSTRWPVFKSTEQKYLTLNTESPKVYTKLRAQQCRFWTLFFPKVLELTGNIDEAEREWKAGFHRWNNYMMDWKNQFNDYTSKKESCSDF
Chain of Acetylcholinesterase (O42275 whole entry): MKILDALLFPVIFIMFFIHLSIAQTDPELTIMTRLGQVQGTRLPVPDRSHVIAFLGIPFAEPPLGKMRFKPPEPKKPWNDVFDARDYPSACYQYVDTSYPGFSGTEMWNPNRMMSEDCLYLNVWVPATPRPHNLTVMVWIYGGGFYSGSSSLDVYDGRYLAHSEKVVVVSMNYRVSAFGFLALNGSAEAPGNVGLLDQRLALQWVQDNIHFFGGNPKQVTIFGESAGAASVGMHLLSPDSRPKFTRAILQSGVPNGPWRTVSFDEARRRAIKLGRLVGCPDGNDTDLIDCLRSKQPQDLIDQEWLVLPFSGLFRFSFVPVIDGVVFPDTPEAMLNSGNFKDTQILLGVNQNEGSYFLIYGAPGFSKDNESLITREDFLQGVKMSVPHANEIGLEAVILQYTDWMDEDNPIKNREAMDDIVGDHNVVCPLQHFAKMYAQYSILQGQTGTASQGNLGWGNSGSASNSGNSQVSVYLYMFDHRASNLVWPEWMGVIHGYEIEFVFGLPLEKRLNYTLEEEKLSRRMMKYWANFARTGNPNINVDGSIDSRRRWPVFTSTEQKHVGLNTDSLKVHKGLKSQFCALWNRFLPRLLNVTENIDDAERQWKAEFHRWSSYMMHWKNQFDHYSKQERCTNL
Chain of Cholinesterase (Homo sapiens, UniProt P06276) (P06276 whole entry): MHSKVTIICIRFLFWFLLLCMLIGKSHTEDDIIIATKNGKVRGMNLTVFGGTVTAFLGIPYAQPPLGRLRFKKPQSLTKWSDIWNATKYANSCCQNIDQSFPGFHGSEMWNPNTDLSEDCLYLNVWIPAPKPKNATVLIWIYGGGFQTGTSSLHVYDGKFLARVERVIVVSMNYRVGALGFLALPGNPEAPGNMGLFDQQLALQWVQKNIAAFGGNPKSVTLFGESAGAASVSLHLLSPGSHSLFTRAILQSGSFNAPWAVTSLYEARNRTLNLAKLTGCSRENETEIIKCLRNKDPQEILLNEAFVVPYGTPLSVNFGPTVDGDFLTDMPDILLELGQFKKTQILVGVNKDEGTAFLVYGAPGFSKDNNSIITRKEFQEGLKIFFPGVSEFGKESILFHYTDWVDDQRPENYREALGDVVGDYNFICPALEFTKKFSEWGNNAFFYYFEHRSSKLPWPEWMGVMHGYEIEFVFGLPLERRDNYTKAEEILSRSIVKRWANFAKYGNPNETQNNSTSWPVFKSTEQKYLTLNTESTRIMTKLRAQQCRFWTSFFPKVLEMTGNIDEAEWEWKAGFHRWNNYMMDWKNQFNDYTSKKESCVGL

On Cholinesterase [1], `COc1ccc(-c2cc(C(=O)N3CCN(Cc4ccccc4)CC3)c3ccccc3n2)cc1` came in with an inhibitory constant (Ki) of 5.2 µM. Besides, the IC50 result on Acetylcholinesterase is “Not Active”; on Cholinesterase [2] it was 3.3 µM; at Cholinesterase [4] it was 2.4 µM. Besides, the Papp in data set [3] was 1.28 ×10⁻⁶ cm/s. For the same compound, the inhibition in data set [5] is 8%.
Consider `COc1ccccc1C1CCN(Cc2c(C)[nH]c3ccccc23)CC1`, for which the IC50 entry against Acetylcholinesterase was “Not Active”; against Cholinesterase [2] it was 12.3 µM.
